Data on 15 molecules can be found in US20240199546A1, “INHIBITORS OF SOLUTE CARRIER FAMILY 6A MEMBER 19 (SLC6A19) AND METHODS OF USE THEREOF” (Maze Therapeutics, Inc., priority 2022, published 2024).

The target of the first assay is T1, human SLC6A19 and TMEM27 (Homo sapiens, UniProt Q695T7).
T1 construct: expressed in transfected cells
T1 sequence (Q695T7 1-634): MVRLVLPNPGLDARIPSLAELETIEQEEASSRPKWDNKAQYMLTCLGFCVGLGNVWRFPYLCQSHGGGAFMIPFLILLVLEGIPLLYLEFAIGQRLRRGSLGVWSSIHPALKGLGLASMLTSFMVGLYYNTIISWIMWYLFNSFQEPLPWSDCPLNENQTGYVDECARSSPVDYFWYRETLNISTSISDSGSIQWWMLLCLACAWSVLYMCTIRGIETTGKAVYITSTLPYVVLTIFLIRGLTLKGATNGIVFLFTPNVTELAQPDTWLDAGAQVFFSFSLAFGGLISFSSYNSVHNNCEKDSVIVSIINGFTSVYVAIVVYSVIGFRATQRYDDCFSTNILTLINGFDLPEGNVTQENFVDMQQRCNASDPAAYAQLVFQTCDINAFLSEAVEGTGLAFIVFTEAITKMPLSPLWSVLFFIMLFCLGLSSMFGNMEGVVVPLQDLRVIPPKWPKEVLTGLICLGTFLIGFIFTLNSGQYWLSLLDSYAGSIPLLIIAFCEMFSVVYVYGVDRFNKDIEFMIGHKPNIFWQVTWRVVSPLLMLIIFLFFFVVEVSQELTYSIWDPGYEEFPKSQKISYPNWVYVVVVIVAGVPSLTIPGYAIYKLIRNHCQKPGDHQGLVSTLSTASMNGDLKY
T1 sequence (Q9HBJ8 15-222 partner): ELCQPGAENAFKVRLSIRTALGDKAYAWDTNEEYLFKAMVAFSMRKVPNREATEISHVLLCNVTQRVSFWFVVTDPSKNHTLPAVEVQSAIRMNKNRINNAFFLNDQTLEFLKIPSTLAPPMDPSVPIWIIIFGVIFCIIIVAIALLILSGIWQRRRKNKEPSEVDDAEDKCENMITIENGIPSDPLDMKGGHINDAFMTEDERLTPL
As to the kind of experiment: Radiolabelled (3H) leucine uptake in CHO cells with doxycycline-inducible expression of human SLC6A19 and TMEM27 (Example B-1). It is filed as cell-based. As to conditions: CHO cells with doxycycline-inducible expression of human SLC6A19 and TMEM27, read-out: SLC6A19_Radioligand Uptake Assay IC50. The gist of the method: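 CHO cells were induced with doxycycline for 18 h at 37 °C, washed in HBSS, then exposed to compounds for 1 h: 8-point, 3-fold dilutions in duplicate, 0.5% DMSO final. Uptake measured by scintillation counting after 2 h shaking. Activity normalized with positive control as 0% and DMSO as 100%.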
The term IC50 denotes the concentration at which inhibition is half-maximal. With `Cc1cc(COc2cc3[nH]c(CNC(=O)N4CCC4C#N)cc3cc2Cl)on1` (stereo not drawn) [Compound 376, N-((5-chloro-6-((3-methylisoxazol-5-yl)methoxy)-1H-indol-2-yl)methyl)-2-cyanoazetidine-1-carboxamide], the IC50 was determined as 2120 nM.

Regarding `O=C(NCc1cc2cc(Cl)c(OCc3cscn3)cc2[nH]1)C1CCO1` (stereo not drawn) [Compound 269, N-((5-chloro-6-(thiazol-4-ylmethoxy)-1H-indol-2-yl)methyl)oxetane-2-carboxamide], the half-inhibitory concentration (IC50) amounted to 66.6 nM.

The next assay deals with T1, human SLC6A19 and TMEM27. Nature of the assay: 13C6,15N-isoleucine uptake in CHO cells with doxycycline-inducible expression of human SLC6A19 and TMEM27, RapidFire mass spectrometry (Example B-2). It is filed as cell-based. As to conditions: read-out: SLC6A19_RapidFire Uptake Assay IC50. As to the method: Assay ready vials of CHO cells with doxycycline inducible expression of human SLC6A19 and TMEM27 were thawed, plated in T175 flasks containing DMEM/F12 media, 10% FBS, 1% Penicillin-Streptomycin, 1× UltraGlutamate, 1 mM Sodium Pyruvate, Sodium Bicarbonate (7.5 mL of 7.5% solution in 500 mL media final), 5 μg/mL Blasticidin, 150 μg/mL Hygromycin B Gold, and 500 μg/mL G418, and incubated (humidified, 37° C. with 5% CO2) for 48 hours. Media was then removed, flasks were washed with 20 mL of DPBS, and 5 mL of TrypLE™ Express was added to each flask to initiate cell dissociation. After 5 minutes, 10 mL of cell culture media was added to each flask and mixed. The cell suspension was collected and centrifuged for 5 minutes at 200×g. The supernatant was removed, and the pellet was resuspended in 10 mL of cell culture media. Resuspended cells were counted using a Vi-Cell. 30 μL/well (20,000 cells/well) of cell suspension was added to Poly-D-Lysine 384-well black/clear plates. Plates were incubated (humidified, 37° C. with 5% CO2) for 24 hours. To induce expression of human SLC6A19 and TMEM27, 10 μL of assay culture media containing 4 μg/mL doxycycline was added to each well. Assay plates were then incubated (humidified, 37° C. with 5% CO2) overnight. After incubation, the media was removed, and wells were washed 3 times with 40 μL of warmed DPBS. Next, 10 μL of warmed assay buffer (137 mM NaCl, 5 mM KCl, 1 mM CaCl2), 1 mM MgCl2, 10 mM HEPES, 10 mM glucose, pH 7.2) was added to each well. 10 μL/well of test compound or positive control compound to define 0% activity (i.e., 100% inhibition), was then added into each well. All compounds were plated in a duplicate 10-point dilution series that consisted of 2-fold dilutions. The plates were incubated (humidified, 37° C. with 5% C2) with compound for 20 minutes. Afterwards, 20 μL/well of 2 mM 13C6,15N-1-isoleucine was added to each well and plates were incubated again (humidified, 37° C. with 5% C02) for another 20 minutes. Assay buffer was then removed, and plates were washed. 70 μL/well of stop solution (75% acetonitrile, 25% HPLC grade water, 250 nM 1-leucine-1-13C (RapidFire standard)) was added to each well. The plates were sealed and then placed in a −20° C. freezer for 20 minutes. The plates were thawed at room temperature for 20 minutes and then centrifuge for 20 minutes at 3000 rpm. Using an ABSciex API4000 mass spectrometer, processed samples were loaded onto the graphitic carbon SPE-column. The time for aspiration, load/wash, elution and re-equilibration time was 600, 1500, 3000 and 500 milliseconds, respectively. Peak areas were calculated using RapidFire Integrator software.
Turning to `CNC(=O)NCc1cc2ccc(OCc3cscn3)cc2[nH]1` [Compound 217, 1-methyl-3-((6-(thiazol-4-ylmethoxy)-1H-indol-2-yl)methyl)urea], the IC50 came out at 3420 nM.

Take `CC1(C(=O)NCc2cc3ccc(OCc4ccccc4)cc3[nH]2)CC1` [Compound 5, N-((6-(benzyloxy)-1H-indol-2-yl)methyl)-1-methylcyclopropanecarboxamide]: the IC50 stood at 53 nM.

On to `Cc1nnc(COc2ccc3cc(CNC(=O)C4(C)CC4)[nH]c3c2)s1` [Compound 165, 1-methyl-N-((6-((5-methyl-1,3,4-thiadiazol-2-yl)methoxy)-1H-indol-2-yl)methyl)cyclopropane-1-carboxamide], for which the IC50 came out at 2180 nM.

For `CC1(C(=O)NCc2cc3cc(Cl)c(OCc4cocn4)cc3[nH]2)CC1` [Compound 161, N-((5-chloro-6-(oxazol-4-ylmethoxy)-1H-indol-2-yl)methyl)-1-methylcyclopropane-1-carboxamide], the concentration for half-maximal inhibition (IC50) was determined as 68 nM.

With `CC1(C(=O)NCc2cc3ccc(OCc4ccc(Cl)cc4)cc3[nH]2)CC1` [Compound 44, N-((6-((4-chlorobenzyl)oxy)-1H-indol-2-yl)methyl)-1-methylcyclopropane-1-carboxamide], the IC50 was determined as 838 nM.

For `CC1(C(=O)NCc2cc3ccc(OCc4cncs4)cc3[nH]2)CC1` [Compound 48, 1-methyl-N-((6-(thiazol-5-ylmethoxy)-1H-indol-2-yl)methyl)cyclopropane-1-carboxamide], the IC50 was 493 nM.

In the case of `CC1(C(=O)NCc2cc3cc(Cl)c(OCc4ccsn4)cc3[nH]2)CC1` [Compound 38, N-((5-chloro-6-(isothiazol-3-ylmethoxy)-1H-indol-2-yl)methyl)-1-methylcyclopropane-1-carboxamide], the IC50 is 44 nM.

For `CC1(C(=O)NCc2cc3ccc(OCc4nncs4)cc3[nH]2)CC1` [Compound 171, N-((6-((1,3,4-thiadiazol-2-yl)methoxy)-1H-indol-2-yl)methyl)-1-methylcyclopropane-1-carboxamide], the IC50 was 1730 nM.

`CC1(C(=O)NCc2cc3ccc(OCc4cnsn4)cc3[nH]2)CC1` [Compound 166, N-((6-((1,2,5-thiadiazol-3-yl)methoxy)-1H-indol-2-yl)methyl)-1-methylcyclopropane-1-carboxamide]: the IC50 came out at 48 nM.

For `Cc1c(CNC(=O)C2(C)CC2)[nH]c2cc(OCc3ccon3)ccc12` [Compound 155, N-((6-(isoxazol-3-ylmethoxy)-3-methyl-1H-indol-2-yl)methyl)-1-methylcyclopropane-1-carboxamide], the IC50 was 311 nM.

On to `Cc1cc(COc2cc3[nH]c(CNC(=O)C4(C)CC4)cc3cc2Cl)on1` [Compound 175, N-((5-chloro-6-((3-methylisoxazol-5-yl)methoxy)-1H-indol-2-yl)methyl)-1-methylcyclopropane-1-carboxamide], for which the half-inhibitory concentration (IC50) came out at 38 nM.

Turning to `Cn1ncc(COc2ccc3cc(CNC(=O)C4(C)CC4)[nH]c3c2)n1` [Compound 173, 1-methyl-N-((6-((2-methyl-2H-1,2,3-triazol-4-yl)methoxy)-1H-indol-2-yl)methyl)cyclopropane-1-carboxamide], the IC50 amounted to 926 nM.

For `CC1(C(=O)NCc2cc3ccc(OCc4cocn4)cc3[nH]2)CC1` [Compound 49, 1-methyl-N-((6-(oxazol-4-ylmethoxy)-1H-indol-2-yl)methyl)cyclopropane-1-carboxamide], the IC50 worked out at 412 nM.
